Experimental data published in article PMC3731522, “Arginase II inhibitory activity of flavonoid compounds from Scutellaria indica” (Archives of Pharmacal Research, 2013).

Target: T1, Arginase II (Mus musculus, UniProt O08691)
T1 construct: Tissue lysates of kidney were prepared using lysis buffer; from tissue; host or cells: kidney of C57BL/6 mice
T1 sequence (O08691 23-354): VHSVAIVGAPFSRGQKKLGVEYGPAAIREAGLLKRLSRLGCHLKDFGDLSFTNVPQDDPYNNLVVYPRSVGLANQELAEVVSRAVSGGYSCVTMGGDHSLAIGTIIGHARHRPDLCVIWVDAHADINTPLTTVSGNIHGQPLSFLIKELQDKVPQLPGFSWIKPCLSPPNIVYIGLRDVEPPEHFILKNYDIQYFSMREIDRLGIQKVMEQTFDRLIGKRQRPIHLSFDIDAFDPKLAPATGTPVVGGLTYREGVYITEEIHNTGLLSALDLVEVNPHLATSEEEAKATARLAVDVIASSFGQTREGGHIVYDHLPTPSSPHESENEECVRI
Assay: Arginase II inhibitory activity, enzyme solution from mouse kidney lysate, urea determined at 550 nm
Assay type: biochemical
Details: kidney lysates of C57BL/6 mice; 50 % inhibition relative to vehicle control; average of three repeated experiments
Protocol: Arginase II solution was prepared from kidney lysates of anesthetized C57BL/6 mice (White et al. [2006]). Tissue lysates of kidney were prepared using lysis buffer (50 mM Tris–HCl, pH7.5, 0.1 mM EDTA and protease inhibitors) by homogenization at 4 °C followed by centrifugation for 20 min at 14,000×g at 4 °C. Briefly, […] lysates were added to Tris–HCl. The hydrolysis reaction of L-arginine by Arg was performed by incubating the mixture containing activated Arg and was stopped by adding acid solution. For calorimetric determination of urea, α-isonitrosopropiophenone was added, and the mixture was heated at 100 °C for 45 min. After placing the sample in the dark for 10 min at room temperature, the urea concentration was determined spectrophotometrically by the absorbance at 550 nm (White et al. [2006]).

Structure (SMILES) | IC50 [µM]
COc1ccc([C@H]2C[C@H](OC)c3c(OC)c(OC)c(OC)c(OC)c3O2)cc1 [Compound 1, (2R,4S)-4,5,6,7,8,4′-hexamethoxylflavan] | > 200
COc1c(O)cc(O)c2c(=O)cc(-c3ccccc3)oc12 [Compound 2, wogonin] | > 200
COc1ccccc1[C@@H]1CC(=O)c2c(O)cc(O)c(OC)c2O1 [Compound 3, (2S)-5,7-dihydroxy-8,2′-dimethoxyflavanone] | 25.1 ± 2.6
O=c1cc(-c2ccc(O)cc2)oc2cc(O)cc(O)c12 [Compound 4, apigenin] | > 200
COc1cc(O)c2c(c1OC)O[C@H](c1cc(O)ccc1O)CC2=O [Compound 5, (2S)-5,2′,5′-trihydroxy-7,8-dimethoxyflavanone] | 11.6 ± 1.2
O=C1C[C@@H](c2ccc(O)cc2)Oc2cc(O)cc(O)c21 [Compound 6, naringenin] | > 200
O=C1C[C@@H](c2ccc(O)cc2)Oc2cc(O)cc(O[C@@H]3O[C@H](CO)[C@@H](O)[C@H](O)[C@H]3O)c21 [Compound 7, naringenin-5-O-β-D-glucopyranoside] | > 200
COc1cc(O)c2c(c1OC)OC(c1cc(O)ccc1OC1OC(CO)C(O)C(O)C1O)CC2=O [Compound 8, (2S)-5,5′-dihydroxy-7,8-dimethoxyflavanone-2′-O-β-D-glucopyranoside] | > 200
OC[C@H]1O[C@@H](Oc2cc(/C=C/c3cc(O)cc(O)c3)ccc2O)[C@H](O)[C@@H](O)[C@@H]1O [PG, piceatannol-3′-O-β-D-glucopyranoside, reference compound] | 1 ± 0.1

Test system: not given
Assay: not given
Details: not given

Structure (SMILES) | melting point [°C]
COc1ccc([C@H]2C[C@H](OC)c3c(OC)c(OC)c(OC)c(OC)c3O2)cc1 [Compound 1, (2R,4S)-4,5,6,7,8,4′-hexamethoxylflavan] | 218 to 220
